{"source": "paper PMC6450887", "about": "“Metabolic resistance of the D-peptide RD2 developed for direct elimination of amyloid-β oligomers” (Scientific Reports, 2019)", "key": {"[1]": {"experiment": "Stability in human liver microsomes, RP-HPLC / UHPLC-ESI-QTOF-MS", "type": "in vitro ADME", "method": "The preparation of the media was performed as described before in Elfgen et al.[24]. Preparation of simulated gastric and intestinal fluid (SGF & SIF) was done according to the European Pharmacopoeia 7.0. Plasma samples were obtained from human blood of a volunteer donor. Pooled human liver microsomes were purchased from Sekisui XenoTech (Kansas City, USA; H1000, Lot: 0710494 and 1210270; H1500, Lot: 1210079), from Sigma-Aldrich (St. Louis, USA; M0692, Lot: SLBL1433V; M0567, Lot: SLBR2706V and SLBN7300V) and from Gibco, Thermo Fisher Scientific (Waltham, USA; HMMCPL, Lot: PL050; HMMCPM, Lot: PL039). Pooled Sprague Dawley rat liver microsomes were purchased from Sigma-Aldrich (St. Louis, USA; M9066, Lot: SLBN0707V) and from Gibco, Thermo Fisher Scientific (Waltham, USA; RTMCPL, Lot: RT053). Pooled cynomolgus monkey liver microsomes were purchased from Gibco, Thermo Fisher Scientific (Waltham, USA; MKMCPL, Lot: MK062) and from Sekisui XenoTech (Kansas City, USA; P2000, Lot: 1210334). The liver microsomes were diluted in an NADPH regenerating system (NRS).\nFor the stability tests, 150 µM RD2 or L-RD2 was incubated in SGF, SIF, human plasma and human liver microsomes in triplicate at 37 °C with slight shaking for different time periods. To prevent microbial contaminations in long-term plasma incubations, 0.1% sodium azide was added to the solutions. Microsomal long-term activity was examined by incubating microsomes without peptide for up to 24 h and adding L-RD2 after 8 and 24 h. The ability to degrade L-RD2 served as indicator for their activity. For the comparison of RD2 metabolite profiles across species, 150 µM RD2 was incubated in human, rat and cynomolgus liver microsomes at 37 °C for 2 and 24 h. The peptides were extracted by precipitating the proteins with trichloroacetic acid (TCA) and subsequent centrifugation, as described previously in Elfgen et al.[24]. Peptides immediately extracted from the media and precipitated media without peptides served as controls.\nFor sample analysis from stability tests (see 2.3), mobile phases were acetonitrile (A) and water (B) each supplemented with 0.15% trifluoroacetic acid (TFA) (v/v). The samples were measured isocratically at 10% solvent A for 30 min. This run conditions allowed us to detect smallest chemical changes including the differentiation between the original compound and a deamidated version (Fig. S1). RD2 and L-RD2 can potentially be deamidated at two sites, the C-terminus and the asparagine at position seven. Peak areas of the unmetabolized peptides after different incubation times were normalized to the peptides’ peak areas after direct extraction from the media. […] A chromatographic metabolite profile of L-RD2 in SIF was recorded with the same mobile phases but using a gradient from 0 to 30% solvent A in 30 min. […]"}, "rat": {"test_system": "rat", "parameters": "method as in complete study will be published elsewhere", "settings": "oral, up to high doses, ref complete study will be published elsewhere; cited from earlier work"}, "[2]": {"experiment": "Inhibition assay: degradation of L-peptide […] with and without RD2", "type": "in vitro ADME", "settings": "150 µM RD2 + 150 µM L-peptide; SGF, SIF 5 min; plasma, liver microsomes 30 min", "method": "To investigate whether RD2 acts as potential inhibitor for the enzymes contained in SGF, SIF, human blood plasma and human liver microsomes, an exemplary L-peptide, […], was incubated in these media with and without RD2 and the potential inhibition of the L-peptide’s degradation was monitored. This control was intended to reveal a potential resistance of RD2 to degradation due to enzyme inhibition instead of pure degradation resistance. […] For this purpose, 150 µM of the L-peptide with or without 150 µM RD2 was incubated in SGF, SIF, human plasma and liver microsomes and both peptides were extracted from the media immediately or after 5 min (SGF, SIF) or 30 min (plasma, liver microsomes) with the method mentioned under point 2.3. Time dependent compound degradation or modification was followed by RP-HPLC (see 2.8).\nFor analysis of the inhibition assay with enzymes contained in SGF, SIF, plasma and liver microsomes (see 2.4), RD2, […] and remaining media components were separated using the mobile phases acetonitrile (A) and water (B) each supplemented with 0.15% TFA and a gradient from 0 to 50% solvent A in 15 min."}}, "note": "“Also recorded” adds a separate entry of the source. Non-standard residues stand in square brackets, D forms with d. Residues, ends and D or L forms follow the SMILES beside them."}
{"molecule": "CC(C)C[C@@H](NC(=O)[C@H](NC(=O)[C@H]1CCCN1)[C@H](C)O)C(=O)N[C@H](Cc1c[nH]cn1)C(=O)N[C@@H](C(=O)N[C@H](Cc1c[nH]cn1)C(=O)N[C@H](CC(N)=O)C(=O)N[C@H](CCCNC(=N)N)C(=O)N[C@H](CCCNC(=N)N)C(=O)N[C@H](CCCNC(=N)N)C(=O)N[C@H](CCCNC(=N)N)C(=O)N[C@H](CCCNC(=N)N)C(N)=O)[C@H](C)O", "note": "[RD2, ptlhthnrrrrr] (H-[dP][dT][dL][dH][dT][dH][dN][dR][dR][dR][dR][dR]-NH2)", "values": [{"measurement": "peptide metabolized", "setting": "[1]; 150 µM, 37 °C, within 24 h", "value": "33 ± 3", "unit": "%"}, {"measurement": "deamidation in human liver microsomes", "setting": "[1]; UHPLC-ESI-QTOF-MS", "value": "not deamidated"}, {"measurement": "toxic effects of orally administered RD2", "setting": "rat", "value": "does not cause toxic effects up to high doses"}, {"measurement": "influence of RD2 on degradation of the L-peptide KLVFFRRRRRR", "setting": "[2]", "value": "not influenced; also recorded: did not influence the degradation of the L-peptide in any of the media"}]}
